Here are results for 1 compound from article PMC10959927, “Platinum iodido drugs show potential anti-tumor activity, affecting cancer cell metabolism and inducing ROS and senescence in gastrointestinal cancer cells” (Communications Biology, 2024).

Where “and” joins values, the source holds several entries; their conditions need not be identical. Identical values can stand only once.

Assay type in all cases: cell-based, human
Test [1] has as its system AGS cells. Description: SA-β-Gal histochemical staining. Conditions: Fig. S4A. The protocol: SA-β-Gal activity was measured following two different approaches. (i) AGS, MKN45 and PANC1 cells (5 × 10^4) were seeded in 24-multiwell dishes and incubated overnight. […] For flow cytometry cell senescence detection, cells were tripsinized, fixed for 15 min with PFA 4% and stained with the CellEvent Senescense Green Flow Cytometry Assay Kit (C10840, Invitrogen) according to manufacturer’s instructions. CellEvent Senescense Green Probe was used at a 1:500 dilution and fluorescence was detected using the filter (Ex488nm/Em530/30) BL1 with a 4-laser Attune NxT Acoustic Cytometer (Thermo Fisher Scientific). […] After 3 h, the treatments were removed, new supplemented medium was added, and cells were incubated for an additional 24 h. Finally, SA-β-Gal staining was performed using the Senescence Cells Histochemical Staining Kit (CS0030-1KT) according to the manufacturer’s instructions.

The subject of test [2] is AGS cells. The experiment in a line: Ratio GSH/GSSG, colorimetric kit. The following applies: AGS, C+ (positive control), relative to Control = 1. The protocol: (§1) GSH and GSSG levels were determined in AGS and PANC1 cells after 3 and 24 h of treatment with the compounds (using H2O2 as a positive control) with the Glutathione Colorimetric Detection Kit (ThermoFisher) following the manufacturer’s instructions. Thirty minutes after adding the Colorimetric Detection Reagent and the Reaction Mixture, the absorbance was read at 405 nm. A standard curve was generated with each assay to interpolate the sample results. To measure GSSG, standards and samples must be diluted with the Sample Diluent containing 2-vinylpyridine.

Test [3] concerns PANC1 cells. The experiment in a line: Ratio GSH/GSSG, colorimetric kit. Conditions: PANC1, C+ (positive control), relative to Control = 1. The protocol: as §1
The test system of test [4] is PANC1 cells. Description: ROS detection by confocal microscopy (DHE, MitoSox). Conditions: PANC1, 1 h treatment; H2O2 200 µM, CDDP 10 µM, I5 20 µM, I6 20 µM. The protocol: Tumor cells were seeded at a density of 3 × 10^5 cells in 15 µm 8-well IBIDI plates and incubated overnight. […] Subsequently, cells were stained with 10 μM of dihydroethidium (DHE, cytosolic O2^·- probe, Sigma-Aldrich) or with 5 μM of Mitosox (mitochondrial O2^·- probe, Sigma-Aldrich) for 15–30 min[79] and then visualized on a confocal microscope (Confocal LSM 710 Zeiss, Biomedical Research Institute Alberto Sols, IIBm-CSIC-UAM, Madrid, Spain). The image analysis was realized using the software program Image J.

As to `OO` [H2O2, reference compound], the “Fold change % Senescence” value with AGS cells [1] is 52.81% and 54.43% and 58.54%. The GSH/GSSG in the test on AGS cells [2] is 0.8614 and 0.8667 and 0.9484; in the test with PANC1 cells [3] it was 0.5945 and 0.659 and 0.8185. For the same compound, the “DHE fluorescence intensity (per cell), cytosolic O2•−” value with PANC1 cells [4] is 174.023 and 151.84 and 151.685 and 148.486 and 115.72 and 133.113.
